Measured values reported in patent US20090022664A1, “Radiolabelling via fluorination of aziridines” (priority 2007, published 2009).

Assays:
[1] = Plasma stability of the β-fluoro amines; format: in vitro ADME; conditions: in solution with Human Plasma; aliquots incubated for different time periods
Description: 675 μl EtOH were added to the reactive-vial and then 5 aliquots of 70 μl of the Plasma solution were incubated for different time periods.

[2] = Hydrolytic stability of the β-fluoro amines; format: physicochemical; conditions: under neutral and basic conditions (FIG. 2)
From the text: The β-fluoro amino acid derivative 11ab-18F is quite stable under neutral and basic conditions (FIG. 2).

COc1ccc(S(=O)(=O)NC(C[18F])C(=O)NCc2ccccc2)cc1OC (stereo not drawn) [11ac-18F, 3-[^18F]Fluoro-N-benzyl-2-(3,4-dimethoxyphenylsulphon-amido)-propanamide]
Plasma stability [1]: stable

CC(C)c1cc(C(C)C)c(S(=O)(=O)NC(C[18F])C(=O)NCc2ccccc2)c(C(C)C)c1 (stereo not drawn) [11ab-18F, 3-[^18F]Fluoro-N-benzyl-2-(2,4,6-triisopropylphenylsulphon-amido)-propanamide]
Hydrolytic stability [2]: quite stable

CC(C)c1cc(C(C)C)c(S(=O)(=O)NC2CN(C(=O)CCC(=O)NCc3ccccc3)CC2[18F])c(C(C)C)c1 (stereo not drawn) [35aa-18F, N-Benzyl-4-[3-[^18F]fluoro-4-(2,4,6-triisopropyl-benzene-sulfonylamino)-pyrrolidin-1-yl]-4-oxo-butyramide]
Plasma stability [1]: stable
